In PubChem BioAssay (NCI):
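96-well plates; 48 h exposure; 5 concentrations. Endpoints by linear interpolation between flanking doses. Not reached: highest tested concentration assigned. GI50 marks 50% less growth. TGI denotes the concentration required for complete inhibition of growth.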

How the values were obtained:
Assay in all cases: NCI anticancer screen, dose series, 48 h
UACC-257 melanoma = system: UACC-257 melanoma
SK-MEL-5 melanoma = system: SK-MEL-5 melanoma
EKVX NSCLC = system: EKVX NSCLC
A549 NSCLC = system: A549 NSCLC
TK-10 renal = system: TK-10 renal
UO-31 renal = system: UO-31 renal
KM12 colon = system: KM12 colon
OVCAR-4 ovarian = system: OVCAR-4 ovarian
MCF7 breast = system: MCF7 breast
A498 renal = system: A498 renal

Compound | TGI (UACC-257 melanoma) | TGI (SK-MEL-5 melanoma) | TGI (EKVX NSCLC) | TGI (A549 NSCLC) | TGI (TK-10 renal) | TGI (UO-31 renal) | TGI (KM12 colon) | TGI (OVCAR-4 ovarian) | GI50 (MCF7 breast) | TGI (MCF7 breast) | GI50 (UACC-257 melanoma) | GI50 (SK-MEL-5 melanoma) | GI50 (EKVX NSCLC) | GI50 (TK-10 renal) | GI50 (UO-31 renal) | GI50 (KM12 colon) | GI50 (OVCAR-4 ovarian) | TGI (A498 renal) | GI50 (A549 NSCLC) | GI50 (A498 renal)
CC1CC2C3CC(F)C4=CC(=O)C=CC4(C)C3(F)C(O)CC2(C)C1(O)C(=O)CO (configuration not stated) | > 100 µM | > 100 µM | > 100 µM | > 100 µM | > 100 µM | > 100 µM | > 100 µM | > 100 µM | – | – | – | – | – | – | – | – | – | – | – | –
COc1cc2cc(C(=O)O)[nH]c2cc1OCc1ccccc1 | > 100 µM | > 100 µM | > 100 µM | – | > 100 µM | > 100 µM | > 100 µM | > 100 µM | 93.2 µM | > 100 µM | 89.4 µM | 80.8 µM | > 100 µM | > 100 µM | > 100 µM | > 100 µM | > 100 µM | – | – | –
CC(NC1CCC[C@H]1O)c1ccccc1 (mixture of isomers) | > 100 µM | > 100 µM | > 100 µM | > 100 µM | > 100 µM | > 100 µM | > 100 µM | > 100 µM | – | – | – | – | – | – | – | – | – | > 100 µM | – | –
CC1=CC(C)C(O)C(C)/C=C/C(O)C/C=C(/C)C(=O)CC(O)C(C)\C=C/C=C/C=C\C(=O)NC2=C(O)c3cc(C)c(O)c(c3C(=O)C2=O)C1=O (configuration not stated) | > 100 µM | > 100 µM | > 100 µM | > 100 µM | > 100 µM | > 100 µM | > 100 µM | > 100 µM | – | 65 µM | – | – | – | – | – | – | – | – | – | –
COC(=O)C1CCc2c(OC)ccc(OC)c2C1=O (configuration not stated) | > 100 µM | > 100 µM | > 100 µM | > 100 µM | > 100 µM | > 100 µM | > 100 µM | > 100 µM | – | – | – | – | – | – | – | – | – | > 100 µM | – | –
COC(=O)/C(=C/N1CCN(C(=O)c2ccco2)C1=S)C(C)=O | 39.3 µM | 17.4 µM | 9.89 µM | 39.7 µM | 14.9 µM | 30.9 µM | 9.78 µM | 42.9 µM | – | – | 17.2 µM | 5.26 µM | 2.64 µM | 3.54 µM | 13.5 µM | 3.04 µM | 17.4 µM | – | 19.3 µM | –
CN(C)CCCC1(c2ccc(F)cc2)OCc2cc(-c3ccc4cc[nH]c4c3)ccc21 (configuration not stated) | 3.91 µM | 3.25 µM | 5 µM | 4.57 µM | 4.09 µM | 2.82 µM | 3.42 µM | 4.72 µM | 1.65 µM | 3.24 µM | 1.96 µM | 1.81 µM | 2.04 µM | 2.03 µM | 1.45 µM | 1.85 µM | 2.16 µM | – | 2.11 µM | –
COc1ccc(OC)c(CCc2cc(OC)c(OC)cc2C)c1 | > 100 µM | > 100 µM | > 100 µM | > 100 µM | > 100 µM | > 100 µM | > 100 µM | > 100 µM | – | – | – | – | – | – | – | – | – | > 100 µM | – | –
C=C(CO)CC(O)c1ccccc1 (configuration not stated) | – | > 100 µM | > 100 µM | > 100 µM | > 100 µM | > 100 µM | > 100 µM | > 100 µM | – | – | – | – | – | – | – | – | – | > 100 µM | – | –
O=C(C#Cc1c[nH]c(=O)[nH]c1=O)c1ccccc1 | 23.8 µM | 25.2 µM | 24.9 µM | 64.1 µM | 26.7 µM | 31.8 µM | 29 µM | 27.1 µM | – | – | – | – | – | – | – | – | – | 29.1 µM | – | –
O=C(N/N=C/c1cc2ccccc2c2ccccc12)c1cc(O)c(O)c(O)c1 | 24.6 µM | 10.6 µM | – | 39.2 µM | 30.7 µM | 16.5 µM | 22.9 µM | 35.8 µM | 3.68 µM | 19.7 µM | 10.2 µM | 2.9 µM | – | 4.48 µM | 2.64 µM | 8.24 µM | 2.38 µM | 27 µM | 12.7 µM | 13.3 µM
CSc1s[s+]c(SC)c1[O-] | 50.2 µM | > 100 µM | > 100 µM | > 100 µM | > 100 µM | > 100 µM | > 100 µM | > 100 µM | – | – | – | – | – | – | – | – | – | > 100 µM | – | –
O=C(NCCNCCO)c1ccc2oc3cc4ccccc4c(=O)n3c2c1 | 20.2 µM | 16.4 µM | 19.2 µM | > 50 µM | 20.3 µM | 16.8 µM | 40.4 µM | 36.8 µM | – | – | 9.88 µM | 9.26 µM | 5.63 µM | 9.93 µM | 7.11 µM | 10.5 µM | 15.8 µM | – | 17.6 µM | –
COc1ccc2cc(C(=O)/C=C/c3ccc(OC)c(OC)c3)ccc2c1 | – | 16.6 µM | 68.4 µM | 30.3 µM | > 100 µM | 49.3 µM | 32.1 µM | – | 1.43 µM | 7.33 µM | – | 2.82 µM | 22 µM | 53.1 µM | 23.3 µM | 4.82 µM | – | – | 4.29 µM | –
Cc1ccc(NC2=C(Cl)C(=O)c3nc(C)ccc3C2=O)cc1 | 3 µM | 3.1 µM | 2.92 µM | 4.39 µM | 3.81 µM | 2.88 µM | 12.1 µM | 2.66 µM | – | – | 1.58 µM | 1.71 µM | 1.55 µM | 2.27 µM | 1.53 µM | 2.59 µM | 1.28 µM | 3.81 µM | 1.81 µM | 0.0538 µM
Cc1ccc(C(=O)/C=C/c2ccccc2Cl)cc1 | 33.6 µM | 38.5 µM | 33.6 µM | 85.4 µM | 61.7 µM | 32.8 µM | 30.2 µM | 34.6 µM | – | – | – | – | – | – | – | – | – | 72.5 µM | – | –
O=C(Nc1cc(C(F)(F)F)ccc1Cl)C(=O)C(C(=O)c1ccc2ccccc2c1)C1OC(=O)c2ccccc21 (configuration not stated) | 26 µM | 22.5 µM | 34.8 µM | > 100 µM | 40.3 µM | 28.2 µM | 27.4 µM | > 59.3 µM | – | – | – | – | – | – | – | – | – | 20.8 µM | – | –
Cc1cccc(NC(=O)CC2C(=O)Nc3ccccc3S2(=O)=O)c1C (configuration not stated) | > 100 µM | 74.1 µM | > 100 µM | > 100 µM | 79.5 µM | 50.5 µM | > 100 µM | 32.1 µM | – | – | – | – | – | – | – | – | – | > 100 µM | – | –
CC1=CCC2(C#N)CCC1C2=O (configuration not stated) | > 100 µM | > 100 µM | > 100 µM | > 100 µM | > 100 µM | > 100 µM | > 100 µM | > 100 µM | – | – | – | – | – | – | – | – | – | > 100 µM | – | –
